Measured values published in ChEMBL document CHEMBL1201862, “PubChem BioAssay data set” (2004).
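Interpolation was linear, between the two tested concentrations surrounding the appropriate level; five concentrations were tested over 48 hours in 96-well plates. Abbreviation: GI50, concentration required for 50% inhibition of growth.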 Activity calls are given as the source filed them. Cut-off read from the data, not from the text of the source: active = GI50 up to about 1.1 µM and inactive = higher.

Assays:
Assay in all cases: growth of human tumour cells (NCI), 48 h
Malme-3M = test system: Malme-3M
A549 = test system: A549
ACHN = test system: ACHN
A498 = test system: A498
UACC-257 = test system: UACC-257
U-251 = test system: U-251
NCI-H522 = test system: NCI-H522
SNB-75 = test system: SNB-75
COLO 205 = test system: COLO 205
EKVX = test system: EKVX
SNB-19 = test system: SNB-19
CCRF-CEM = test system: CCRF-CEM
SNB-78 = test system: SNB-78
NCI-H226 = test system: NCI-H226
SN12C = test system: SN12C

Measured: GI50

CCOC(=O)C1(C(=O)OCC)OC(=O)NC2=C1CCCC2
inactive: Malme-3M > 100 µM | A549 > 100 µM | ACHN > 100 µM | A498 > 100 µM | UACC-257 > 100 µM | U-251 > 100 µM | NCI-H522 > 100 µM | SNB-75 > 100 µM | COLO 205 > 100 µM | EKVX > 100 µM | SNB-19 > 100 µM | CCRF-CEM > 100 µM | SNB-78 > 100 µM

CC(=O)Nc1ccccc1Sc1ccccc1
inactive: Malme-3M > 100 µM | A549 > 100 µM | NCI-H226 > 100 µM | ACHN > 100 µM | A498 > 100 µM | SN12C > 100 µM | UACC-257 > 100 µM | U-251 > 100 µM | NCI-H522 36.6 µM | SNB-75 39.3 µM | COLO 205 > 100 µM | EKVX > 100 µM | SNB-19 > 100 µM | CCRF-CEM > 100 µM | SNB-78 > 100 µM

OC1/C(=C/c2ccccc2)CNC/C1=C\c1ccccc1 (configuration not stated)
inactive: Malme-3M > 100 µM | A549 > 100 µM | ACHN > 100 µM | A498 > 100 µM | SN12C > 100 µM | UACC-257 > 100 µM | U-251 > 100 µM | NCI-H522 > 100 µM | SNB-75 75.7 µM | COLO 205 > 100 µM | EKVX > 100 µM | SNB-19 > 100 µM | CCRF-CEM 40.8 µM | SNB-78 > 100 µM

O=Cc1ccc2c(c1-c1c(C=O)ccc3c1OCO3)OCO2
inactive: Malme-3M > 100 µM | A549 > 100 µM | NCI-H226 > 100 µM | ACHN > 100 µM | A498 > 100 µM | SN12C > 100 µM | UACC-257 > 100 µM | U-251 > 100 µM | NCI-H522 > 100 µM | SNB-75 > 100 µM | COLO 205 > 100 µM | EKVX > 100 µM | SNB-19 > 100 µM | CCRF-CEM 85.1 µM | SNB-78 > 100 µM

Cn1c(=O)nc2n(-c3cccc(Br)c3)c3ccccc3nc-2c1=O
inactive: Malme-3M 2.71 µM | A549 2.92 µM | NCI-H226 8.38 µM | ACHN 1.36 µM | A498 10.2 µM | SN12C 4.78 µM | UACC-257 2.09 µM | U-251 5.01 µM | NCI-H522 6.62 µM | SNB-75 9.82 µM | COLO 205 1.68 µM | EKVX 3.79 µM | SNB-19 1.38 µM | CCRF-CEM 5.82 µM | SNB-78 12.2 µM

CCCCCN(CCCCC)C(=O)[C@@H](CCC(=O)OCc1ccccc1)NC(=O)c1cc2ccccc2[nH]1
inactive: Malme-3M > 100 µM | A549 > 100 µM | ACHN > 100 µM | A498 > 100 µM | SN12C > 100 µM | UACC-257 39.3 µM | U-251 6.22 µM | NCI-H522 > 100 µM | SNB-75 > 100 µM | COLO 205 6.18 µM | EKVX > 100 µM | SNB-19 > 100 µM | CCRF-CEM > 100 µM | SNB-78 > 100 µM

C#CCC(N)(CO)C(=O)O (configuration not stated)
inactive: Malme-3M > 100 µM | A549 > 100 µM | NCI-H226 > 100 µM | ACHN > 100 µM | A498 > 100 µM | UACC-257 > 100 µM | U-251 > 100 µM | NCI-H522 > 100 µM | SNB-75 82.6 µM | COLO 205 > 100 µM | EKVX > 100 µM | SNB-19 > 100 µM | CCRF-CEM > 10 µM | SNB-78 > 100 µM

OC12CCCCCC1(N1CCOCC1)c1ccccc12 (configuration not stated)
inactive: Malme-3M > 100 µM | A549 > 100 µM | NCI-H226 > 100 µM | ACHN > 100 µM | A498 > 100 µM | SN12C > 100 µM | UACC-257 > 100 µM | U-251 > 100 µM | NCI-H522 > 100 µM | SNB-75 > 100 µM | COLO 205 > 100 µM | SNB-19 > 100 µM | CCRF-CEM > 100 µM | SNB-78 > 100 µM

C#CC1(O)c2ccccc2C(=O)c2ccccc21
inactive: Malme-3M > 100 µM | A549 > 100 µM | NCI-H226 > 100 µM | ACHN > 100 µM | A498 10.9 µM | SN12C > 100 µM | UACC-257 > 100 µM | U-251 > 100 µM | NCI-H522 > 100 µM | COLO 205 > 100 µM | EKVX > 100 µM | SNB-19 > 100 µM | CCRF-CEM > 100 µM | SNB-78 35.9 µM

CC(C)C(=O)Nc1nc2c(ncn2C2OC(CO)C(O)C2O)c(=O)[nH]1 (configuration not stated)
inactive: Malme-3M > 100 µM | A549 > 100 µM | NCI-H226 > 100 µM | ACHN > 100 µM | A498 > 100 µM | SN12C > 100 µM | UACC-257 > 100 µM | U-251 > 100 µM | NCI-H522 > 100 µM | SNB-75 > 100 µM | COLO 205 > 100 µM | EKVX > 100 µM | CCRF-CEM > 100 µM | SNB-78 > 100 µM
